Results: US11065300B2, “Immunomodulator for hypersensitivity reaction to house dust mite-derived allergen” (MD HEALTHCARE INC., priority 2016, dated 2021)

Tested on: macrophage RAW264.7
Assay: IL-6 and TNF-alpha secretion by macrophages given MicA sRNA Salmonella vesicles mixed with PMB
Assay type: cell-based
Description: Salmonella-derived vesicles themselves have good immunogenicity, but toxicity due to LPS present in the extracellular membrane is a problem. In order to solve this problem, the induction level of innate immune response was evaluated by mixing PMB inhibiting the activity of LPS with vesicles derived from Salmonella overexpressing Mic A sRNA.
Specifically, inflammatory cells (macrophage RAW264.7, 5×10^5 cells/well) were cultured in DMEM comprising 10% FBS and antibiotics (100 units/ml penicillin and 100 μg/ml streptomycin) for 24 hours at 37° C. 24 well tissue culture plate (TPP). After the medium was removed, extracellular vesicles comprising PMB were changed to serum-free DMEM medium added at a concentration of 1 ug/ml. After 15 hours, secretion of IL-6 and TNF-alpha was measured in inflammatory cells.
In order to determine the optimum PMB dilution concentration, in the above method, the PMB concentration was subdivided into 1, 2, 4, 8, and 10 ug/ml and administered to the macrophages together with the vesicles.

## polymyxin B [PMB]
PMB 1 μg/ml or 10 μg/ml mixed with vesicles 1 ug/ml, RAW264.7, 15 hours
  IL-6 secretion: decreased
PMB 10 μg/ml mixed with vesicles 1 ug/ml, RAW264.7, 15 hours
  TNF-alpha secretion: inhibited
PMB 1, 2, 4, 8 and 10 ug/ml with vesicles, RAW264.7
  PMB concentration above which secretion of IL-6 no longer decreased: 2 µg/mL
